From PMC5902630, “A Firefly Luciferase Dual Color Bioluminescence Reporter Assay Using Two Substrates To Simultaneously Monitor Two Gene Expression Events” (Scientific Reports, 2018) come the findings set out here.

The target of one assay is PLR1 (Photinus pyralis, UniProt P08659, Y255F/S284T, form not given). Put plainly: bioluminescence burst (maximal light intensity), Michaelis-Menten fit. The class given is biochemical. The following applies: 2 mM Mg-ATP, 50 mM Tricine, pH 7.8; read-out: Km (μM) / BtLH2. The text has this: bioluminescence burst (maximal light intensity), Michaelis-Menten fit on PLR1
PLR1, sequence (P08659 whole entry Y255F/S284T, form open): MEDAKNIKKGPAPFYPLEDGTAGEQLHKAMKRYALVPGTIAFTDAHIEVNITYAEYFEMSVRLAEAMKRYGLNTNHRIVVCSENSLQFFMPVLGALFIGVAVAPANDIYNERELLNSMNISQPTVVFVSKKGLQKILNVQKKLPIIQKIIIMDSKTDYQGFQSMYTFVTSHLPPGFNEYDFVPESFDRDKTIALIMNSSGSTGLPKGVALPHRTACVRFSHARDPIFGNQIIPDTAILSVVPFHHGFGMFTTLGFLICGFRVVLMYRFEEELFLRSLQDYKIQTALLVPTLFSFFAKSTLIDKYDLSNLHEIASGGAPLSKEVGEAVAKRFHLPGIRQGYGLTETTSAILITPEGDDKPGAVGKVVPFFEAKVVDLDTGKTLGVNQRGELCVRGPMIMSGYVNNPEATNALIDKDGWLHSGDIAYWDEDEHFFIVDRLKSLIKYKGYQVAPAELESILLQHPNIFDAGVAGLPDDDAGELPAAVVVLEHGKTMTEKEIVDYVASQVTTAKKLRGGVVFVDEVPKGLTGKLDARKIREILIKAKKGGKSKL
The target in another assay is PLG3 (Photinus pyralis, UniProt P08659, F250T/L291I/Y340F/F465R, form not given). The assay is described as above. Type of assay: biochemical. Conditions: 2 mM Mg-ATP, 50 mM Tricine, pH 7.8; read-out: Km (μM) / BtLH2. The text has this:
bioluminescence burst (maximal light intensity), Michaelis-Menten fit on PLG3

PLG3, sequence (P08659 whole entry F250T/L291I/Y340F/F465R, form open): as the sequence (P08659 whole entry Y255F/S284T, form open) above, with F250T, F255Y, T284S, L291I, Y340F, F465R counted along it

As to `O=C(O)[C@H]1CSC(c2cc3ccc(O)cc3s2)=N1` [BtLH2], the figures for the Km on PLR1 and on PLG3 were 28 ± 3 µM and 5 ± 1 µM, respectively.
